Measurements as given in ChEMBL document CHEMBL1201862, “PubChem BioAssay data set” (2004).
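A five-concentration, 48-hour dose response in 96-well plates underlies each endpoint, interpolated linearly between surrounding concentrations. GI50 = concentration required for 50% inhibition of growth.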 The source made the active and inactive calls. No stated cut-off is given here; in the data, active = GI50 up to about 1.1 µM and inactive = higher.

Columns and labels:
Test in all cases: inhibition of tumour cell growth, NCI panel, 48 h
[1] = tested on: A498
[2] = tested on: CAKI-1
[3] = tested on: CCRF-CEM
[4] = tested on: HL-60
[5] = tested on: HT-29
[6] = tested on: IGROV-1
[7] = tested on: K562
[8] = tested on: KM12
[9] = tested on: MDA-MB-435
[10] = tested on: MDA-N
[11] = tested on: MOLT-4
[12] = tested on: NCI-H460
[13] = tested on: OVCAR-3
[14] = tested on: OVCAR-8
[15] = tested on: SF-268
[16] = tested on: SK-MEL-2
[17] = tested on: SNB-75
[18] = tested on: U-251
[19] = tested on: UACC-257
[20] = tested on: UO-31

Row | Structure (SMILES) | GI50 [1] | GI50 [2] | GI50 [3] | GI50 [4] | GI50 [5] | GI50 [6] | GI50 [7] | GI50 [8] | GI50 [9] | GI50 [10] | GI50 [11] | GI50 [12] | GI50 [13] | GI50 [14] | GI50 [15] | GI50 [16] | GI50 [17] | GI50 [18] | GI50 [19] | GI50 [20]
1 | CCOC(=O)c1ccc(NC(=O)Oc2ccc3c(C)cc(=O)oc3c2)cc1 | > 100 µM (inactive) | 36.1 µM (inactive) | 22.6 µM (inactive) | 30.4 µM (inactive) | 32.7 µM (inactive) | 38.5 µM (inactive) | 24.3 µM (inactive) | 20.9 µM (inactive) | 35.6 µM (inactive) | 32.1 µM (inactive) | 22.5 µM (inactive) | 29.6 µM (inactive) | 32.7 µM (inactive) | 35.5 µM (inactive) | 37 µM (inactive) | 23 µM (inactive) | 32 µM (inactive) | 32.9 µM (inactive) | 43.2 µM (inactive) | 33.1 µM (inactive)
2 | OCc1ccc2c(c1)CC1(C2)Cc2cc3c(cc2C1)CCC3 | 5.86 µM (inactive) | 6.31 µM (inactive) | 2.74 µM (inactive) | 1.11 µM (active) | 2.22 µM (inactive) | 7.87 µM (inactive) | 0.585 µM (active) | 1.9 µM (inactive) | 0.204 µM (active) | 0.339 µM (active) | 4.41 µM (inactive) | 3.87 µM (inactive) | 3.02 µM (inactive) | 10.8 µM (inactive) | 17.5 µM (inactive) | 3.75 µM (inactive) | 2.26 µM (inactive) | 2.99 µM (inactive) | 7.48 µM (inactive) | 4.97 µM (inactive)
3 | COC(=O)c1ccc(C)cc1CC1Cc2ccc(C)cc2C1=O (stereo not given) | 1.53 µM (inactive) | 7.13 µM (inactive) | 9.91 µM (inactive) | 3.47 µM (inactive) | 3.47 µM (inactive) | 7.87 µM (inactive) | 3.21 µM (inactive) | 4.27 µM (inactive) | 1.63 µM (inactive) | 1.75 µM (inactive) | 5.68 µM (inactive) | 6.61 µM (inactive) | 6.17 µM (inactive) | 12.2 µM (inactive) | 12.2 µM (inactive) | 11.9 µM (inactive) | 5.69 µM (inactive) | 4.07 µM (inactive) | 13.2 µM (inactive) | 19.9 µM (inactive)
4 | Cc1ccc(/N=C2N=C(Cl)/C(=C\c3ccccc3)N\2)cc1 | > 100 µM (inactive) | > 100 µM (inactive) | > 37.3 µM (inactive) | 3.9 µM (inactive) | > 100 µM (inactive) | > 100 µM (inactive) | 5.52 µM (inactive) | > 22.6 µM (inactive) | 30.6 µM (inactive) | 51.9 µM (inactive) | 2.33 µM (inactive) | 78 µM (inactive) | > 100 µM (inactive) | > 25.8 µM (inactive) | > 100 µM (inactive) | > 100 µM (inactive) | > 100 µM (inactive) | > 100 µM (inactive) | > 76.6 µM (inactive) | 79.1 µM (inactive)
5 | CCc1ccc(NC(=O)NC(=O)c2ccccc2[N+](=O)[O-])cc1Oc1ncc(Cl)cn1 | < 0.01 µM (active) | < 0.01 µM (active) | 0.0213 µM (active) | < 0.013 µM (active) | 0.0179 µM (active) | < 0.0165 µM (active) | < 0.0145 µM (active) | < 0.0161 µM (active) | < 0.01 µM (active) | < 0.01 µM (active) | 0.0247 µM (active) | 0.0158 µM (active) | 0.0147 µM (active) | 0.0264 µM (active) | 0.0287 µM (active) | < 0.01 µM (active) | < 0.01 µM (active) | 0.0181 µM (active) | < 0.01 µM (active) | < 0.01 µM (active)
6 | O=C(/C=C/c1ccccc1)N1CCCCC1 | > 100 µM (inactive) | > 100 µM (inactive) | > 100 µM (inactive) | > 100 µM (inactive) | > 100 µM (inactive) | > 100 µM (inactive) | > 100 µM (inactive) | > 100 µM (inactive) | > 100 µM (inactive) | > 100 µM (inactive) | > 100 µM (inactive) | > 100 µM (inactive) | > 100 µM (inactive) | > 100 µM (inactive) | > 100 µM (inactive) | > 100 µM (inactive) | 15.2 µM (inactive) | > 100 µM (inactive) | > 100 µM (inactive) | > 100 µM (inactive)
7 | CCOc1c2c(cc3c1C(=O)c1c(OC)cccc1C3=O)C=C(OC)CC2 | > 25 µM (inactive) | > 25 µM (inactive) | 7.8 µM (inactive) | 5.62 µM (inactive) | 10.3 µM (inactive) | 15.2 µM (inactive) | 6.87 µM (inactive) | 10.6 µM (inactive) | 8.04 µM (inactive) | 6.49 µM (inactive) | 8.71 µM (inactive) | 13.3 µM (inactive) | > 25 µM (inactive) | > 25 µM (inactive) | > 25 µM (inactive) | > 25 µM (inactive) | 8.28 µM (inactive) | 22.3 µM (inactive) | > 25 µM (inactive) | 10.9 µM (inactive)
8 | OC1c2ccccc2[C@@H]2[C@H]1[C@@H](c1ccccc1)C1(Cc3ccccc3C1O)[C@H]2c1ccccc1 (stereo not given in full) | 10.1 µM (inactive) | 8.09 µM (inactive) | 3.13 µM (inactive) | 2.01 µM (inactive) | 2.29 µM (inactive) | 4.37 µM (inactive) | 3.02 µM (inactive) | 2.77 µM (inactive) | 2.82 µM (inactive) | 3.85 µM (inactive) | 2.45 µM (inactive) | 3.13 µM (inactive) | 2.36 µM (inactive) | 5.45 µM (inactive) | 6.7 µM (inactive) | 7.06 µM (inactive) | 7.73 µM (inactive) | 3.92 µM (inactive) | 3.93 µM (inactive) | 7.52 µM (inactive)
9 | OCCN(C1=NCCN1)/[N+](=C/c1ccccc1O)[CH-]c1ccccc1O | > 100 µM (inactive) | > 100 µM (inactive) | > 100 µM (inactive) | > 100 µM (inactive) | > 100 µM (inactive) | > 100 µM (inactive) | > 100 µM (inactive) | > 100 µM (inactive) | > 100 µM (inactive) | > 100 µM (inactive) | > 100 µM (inactive) | > 100 µM (inactive) | > 100 µM (inactive) | > 100 µM (inactive) | > 100 µM (inactive) | > 100 µM (inactive) | > 100 µM (inactive) | > 100 µM (inactive) | > 100 µM (inactive) | 37 µM (inactive)
10 | CCOC(=O)/C(C#N)=C/c1ccc(SCc2ccco2)c([N+](=O)[O-])c1 | > 100 µM (inactive) | > 100 µM (inactive) | > 100 µM (inactive) | > 100 µM (inactive) | > 100 µM (inactive) | > 100 µM (inactive) | > 100 µM (inactive) | > 100 µM (inactive) | > 100 µM (inactive) | > 100 µM (inactive) | > 100 µM (inactive) | > 100 µM (inactive) | > 100 µM (inactive) | > 100 µM (inactive) | > 100 µM (inactive) | > 100 µM (inactive) | > 100 µM (inactive) | > 100 µM (inactive) | > 100 µM (inactive) | > 100 µM (inactive)
